Source: patent publication US9242981B2, “Fused pyrazole derivatives as novel ERK inhibitors” (Merck Sharp & Dohme Corp., priority 2010, dated 2016)

Target: Mouse ERK2 protein (Mus musculus (Mouse), UniProt P63085)
Test: Coupled MEK1/ERK2 IMAP assay or Active ERK2 IMAP assay
Format: biochemical
Details: Table 1, class symbols, 30 μM ATP
Protocol: 14 μl of kinase buffer (10 mM Tris.HCl pH 7.2, 10 mM MgCl2, 0.01% Tween-20, 1 mM DTT) containing 0.4 ng unphosphorylated Mouse ERK2 protein is added to each well of a black 384-well assay plate. […] DMSO concentration during initial incubation is 6.7%. […] DMSO concentration during ERK activation was 4%. After one hour, reactions are terminated by addition of 60 μl IMAP detections beads in binding buffer (Molecular Devices). Binding is allowed to equilibrate for 30 minutes before reading the plate on an LJL Analyst Fluorescence Polarization plate reader.
Activated ERK2 activity was also determined in the IMAP assay format using the procedure outlined above. […] Reactions proceeded for 30 minutes before termination by addition of […] IMAP detection beads in binding buffer. Plates were read as above after 30 minute binding equilibration.

Mouse ERK2 protein, sequence (P63085 whole entry): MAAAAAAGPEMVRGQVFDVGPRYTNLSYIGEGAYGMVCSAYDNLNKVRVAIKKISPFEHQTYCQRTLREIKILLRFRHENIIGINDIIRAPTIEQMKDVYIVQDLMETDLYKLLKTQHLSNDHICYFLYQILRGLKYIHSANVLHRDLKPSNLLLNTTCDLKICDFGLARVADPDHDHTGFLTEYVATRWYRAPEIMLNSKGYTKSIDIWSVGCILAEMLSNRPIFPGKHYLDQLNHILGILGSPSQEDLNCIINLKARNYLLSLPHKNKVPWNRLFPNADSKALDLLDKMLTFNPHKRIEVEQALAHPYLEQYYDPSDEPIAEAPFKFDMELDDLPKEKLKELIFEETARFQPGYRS

CN(C)c1ccc(CC(=O)N2CCc3[nH]nc(-c4ccncc4)c3C2)cc1 [Compound 22, 5[[4-(dimethylamino)-phenyl]acetyl]-4,5,6,7-tetrahydro-3-(4-pyridinyl)-1H-pyrazolo[4,3-c]pyridine] and O=C(Cc1cccnc1)N1CCc2[nH]nc(-c3ccncc3)c2C1 [Compound 25, 4,5,6,7-tetrahydro-3-(4-pyridinyl)-5-(3-pyridinylacetyl)-1H-pyrazolo[4,3-c]pyridine] fall in the same range of IC50: 101 to 1000 nM for the first, 101 to 1000 nM for the second.

Compared with COc1cccc(F)c1CN1CCC(F)C(NC(=O)N2CCc3[nH]nc(-c4ccc5nccn5c4)c3C2)C1 (stereo not shown) [Compound 150, N-[4-fluoro-1-[(2-fluoro-6-methoxyphenyl)methyl]-3-piperidinyl]-1,4,6,7-tetrahydro-3-imidazo[1,2-a]pyridin-6-yl-5H-pyrazolo[4,3-c]pyridine-5-carboxamide], COc1cccc(F)c1CN1CC[C@@H](NC(=O)N2CCc3[nH]nc(-c4ccnc(C)c4)c3C2)C1 [Compound 116, N-[1-[(2-fluoro-6-methoxyphenyl)methyl]-3(R)-pyrrolidinyl]-1,4,6,7-tetrahydro-3-(2-methyl-4-pyridinyl)-5H-pyrazolo[4,3-c]pyridine-5-carboxamide] is higher in IC50: < 20 nM for the first, 21 to 100 nM for the second.

First: Cc1nc(CC(=O)N2CCc3[nH]nc(-c4ccncc4)c3C2)c(C)s1 [Compound 11, 5-[(2,5-dimethyl-4-thiazolyl)acetyl]-4,5,6,7-tetrahydro-3-(4-pyridinyl)-1H-pyrazolo[4,3-c]pyridine]
Second: O=C(Cc1ccc(-c2ccccc2)cc1)N1CCc2[nH]nc(-c3ccncc3)c2C1 [Compound 32, 5-([1,1′-biphenyl]-4-ylacetyl)-4,5,6,7-tetrahydro-3-(4-pyridinyl)-1H-pyrazolo[4,3-c]pyridine]
The IC50 of the first is higher: 1000 to 100000 nM for the first, 101 to 1000 nM for the second.

First: O=C(N[C@@H]1CCCN(Cc2ccccc2C(F)(F)F)C1)N1CCc2[nH]nc(-c3ccncc3)c2C1 [Compound 67, 1,4,6,7-tetrahydro-3-(4-pyridinyl)-N-[1-[[2-(trifluoromethyl)phenyl]meth-yl]-3(R)-piperidinyl]-5H-pyrazolo[4,3-c]pyridine-5-carboxamide]
Second: Cc1nc2ccc(-c3n[nH]c4c3CN(C(=O)N[C@@H]3CCCN(Cc5ccccc5F)C3)CC4)cc2o1 [Compound 191, N-[1-[(2-fluorophenyl)-methyl]-3(R)-piperidinyl]-1,4,6,7-tetrahydro-3-(2-methyl-6-benzoxazolyl)-5H-pyrazolo[4,3-c]pyridine-5-carboxamide]
The IC50 of the first is higher: 21 to 100 nM for the first, < 20 nM for the second.

Cc1ccc([C@@H]2CNC[C@H]2NC(=O)N2CCc3[nH]nc(-c4ccncc4)c3C2)cc1 (racemic) [Compound 157, 1,4,6,7-tetrahydro-N-[trans-4-(4-methylphenyl)-3-pyrrolidinyl]-3-(4-pyridinyl)-5H-pyrazolo[4,3-c]pyridine-5-carboxamide] and CCN1C[C@@H](NC(=O)N2CCc3[nH]nc(-c4ccncc4)c3C2)[C@H](c2ccc(C)cc2)C1 (racemic) [Compound 161, N-[trans-1-ethyl-4-(4-methylphenyl)-3-pyrrolidinyl]-1,4,6,7-tetrahydro-3-(4-pyridinyl)-5H-pyrazolo[4,3-c]pyridine-5-carboxamide] cannot be ordered by IC50: < 20 nM for the first, < 20 nM for the second.

CCn1cc(Cl)c(NC(=O)C2CCc3[nH]nc(-c4ccncc4)c3C2)n1 (stereo not shown) [Compound 2, N-(4-chloro-1-ethyl-1H-pyrazol-3-yl)-4,5,6,7-tetrahydro-3-(4-pyridinyl)-1H-indazole-5-carboxamide] and CC1(C(=O)Nc2ccccc2OCCN2CCCCC2)CCc2[nH]nc(-c3ccncc3)c2C1 (stereo not shown) [Compound 21, 4,5,6,7-tetrahydro-5-methyl-N-[2-[2-(1-piperidinyl)ethoxy]-phenyl]-3-(4-pyridinyl)-1H-indazole-5-carboxamide] fall in the same range of IC50: 1000 to 100000 nM for the first, 1000 to 100000 nM for the second.

First: O=C(N[C@@H]1CCCN(Cc2c(F)cccc2F)C1)N1CCc2[nH]nc(-c3ccc(-c4ccccc4)nc3)c2C1 [Compound 137, N-[1-[(2,6-difluorophenyl)-methyl]-3(R)-piperidinyl]-1,4,6,7-tetrahydro-3-(6-phenyl-3-pyridinyl)-5H-pyrazolo[4,3-c]pyridine-5-carboxamide]
Second: Cc1cc(-c2n[nH]c3c2CN(C(=O)NC2CC(CO)CN(Cc4c(F)cccc4F)C2)CC3)ccn1 (stereo not shown) [Compound 86, N-[1-[(2,6-difluorophenyl)-methyl]-5-(hydroxymethyl)-3-piperidinyl]-1,4,6,7-tetrahydro-3-(2-methyl-4-pyridinyl)-5H-pyrazolo[4,3-c]pyridine-5-carboxamide]
The IC50 of the first is higher: 101 to 1000 nM for the first, 21 to 100 nM for the second.

Compared with Cc1nc2cc(-c3n[nH]c4c3CN(C(=O)N[C@@H]3CCCN(Cc5c(C)cccc5C)C3)CC4)ccc2s1 [Compound 184, N-[1-[(2,6-dimethylphenyl)methyl]-3(R)-piperidinyl]-1,4,6,7-tetrahydro-3-(2-methyl-5-benzothiazolyl)-5H-pyrazolo[4,3-c]pyridine-5-carboxamide], Cc1cc(-c2n[nH]c3c2CN(C(=O)NC2CC(C)CN(Cc4c(F)cccc4C(F)(F)F)C2)CC3)ccn1 (stereo not shown) [Compound 95, N-[1-[[2-fluoro-6-(trifluoro-methyl)phenyl]methyl]-5-methyl-3-piperidinyl]-1,4,6,7-tetrahydro-3-(2-methyl-4-pyridinyl)-5H-pyrazolo[4,3-c]pyridine-5-carboxamide] is higher in IC50: 21 to 100 nM for the first, 101 to 1000 nM for the second.

First: O=C(NC1CC2CC1N(Cc1c(F)cccc1F)C2)N1CCc2[nH]nc(-c3ccncc3)c2C1 (stereo not shown) [Compound 107, N-[2-[(2,6-difluorophenyl)-methyl]-2-azabicyclo[2.2.1]-hept-6-yl]-1,4,6,7-tetrahydro-3-(4-pyridinyl)-5H-pyrazolo[4,3-c]pyridine-5-carboxamide]
Second: CN1C[C@@H](NC(=O)N2CCc3[nH]nc(-c4ccncc4)c3C2)[C@H](c2ccccc2-c2ccccc2)C1 (racemic) [Compound 163, N-[trans-4-[1,1′-biphenyl]-2-yl-1-methyl-3-pyrrolidinyl]-1,4,6,7-tetrahydro-3-(4-pyridinyl)-5H-pyrazolo[4,3-C]pyridine-5-carboxamide]
The IC50 of the first is higher: 101 to 1000 nM for the first, < 20 nM for the second.

Cc1cc(-c2n[nH]c3c2CN(C(=O)NC2CC(C)CN(Cc4ccc5ccccc5n4)C2)CC3)ccn1 (stereo not drawn) [Compound 104, 1,4,6,7-tetrahydro-3-(2-methyl-4-pyridinyl)-N-[5-methyl-l-(2-quinolinylmethyl)-3-piperidinyl]-5H-pyrazolo[4,3-c]pyridine-5-carboxamide] and Cc1cc(-c2n[nH]c3c2CN(C(=O)NC2CC(C)CN(Cc4csc5ccccc45)C2)CC3)ccn1 (stereo not shown) [Compound 101, N-[1-(benzo[b]thien-3-ylmethyl)-5-methyl-3-piperidinyl]-1,4,6,7-tetrahydro-3-(2-methyl-4-pyridinyl)-5H-pyrazolo[4,3-c]pyridine-5-carboxamide] fall in the same range of IC50: 21 to 100 nM for the first, 21 to 100 nM for the second.

Same assay, conditions: Table 2, 30 μM ATP

First: CCn1cc(-c2n[nH]c3c2CN(C(=O)NC2CN(C)CC2c2ccccc2C)CC3)cn1 (racemic) [Compound 147, 3-(1-ethyl-1H-pyrazoI-4-yl)-1,4,6,7-tetrahydro-N-ttrans-1-methyl-4-(2-methylphenyl)-3-pyrrolidinyl]-5H-pyrazolo[4,3-c]pyridine-5-carboxamide]
Second: O=C(N[C@H]1CNC[C@@H]1c1ccccc1)N1CCc2[nH]nc(-c3ccncc3)c2C1 (racemic) [Compound 37, 1,4,6,7-tetrahydro-N-(trans-4-phenyl-3-pyrrolidinyl)-3-(4-pyridinyl)-5H-pyrazolo[4,3-c]pyridine-5-carboxamide]
The IC50 of the first is 1.6-fold higher: 1.9 nM for the first, 1.16 nM for the second.
